Paper PMC8124549, “Antidepressants Differentially Regulate Intracellular Signaling from α1-Adrenergic Receptor Subtypes In Vitro” (International Journal of Molecular Sciences, 2021)
Read-outs that look alike come from different tables or passages of the source.

Experiments:
[1] = molecular target: T1, α1B-AR (Homo sapiens, UniProt P35368); test: IP-One HTRF inositol phosphate accumulation, PC12 cells; format: cell-based
T1 construct: gene ADRA1B; human receptor from pcDNA3.1+ plasmid, stably expressed in rat PC12 cells
T1 sequence (P35368 1-520): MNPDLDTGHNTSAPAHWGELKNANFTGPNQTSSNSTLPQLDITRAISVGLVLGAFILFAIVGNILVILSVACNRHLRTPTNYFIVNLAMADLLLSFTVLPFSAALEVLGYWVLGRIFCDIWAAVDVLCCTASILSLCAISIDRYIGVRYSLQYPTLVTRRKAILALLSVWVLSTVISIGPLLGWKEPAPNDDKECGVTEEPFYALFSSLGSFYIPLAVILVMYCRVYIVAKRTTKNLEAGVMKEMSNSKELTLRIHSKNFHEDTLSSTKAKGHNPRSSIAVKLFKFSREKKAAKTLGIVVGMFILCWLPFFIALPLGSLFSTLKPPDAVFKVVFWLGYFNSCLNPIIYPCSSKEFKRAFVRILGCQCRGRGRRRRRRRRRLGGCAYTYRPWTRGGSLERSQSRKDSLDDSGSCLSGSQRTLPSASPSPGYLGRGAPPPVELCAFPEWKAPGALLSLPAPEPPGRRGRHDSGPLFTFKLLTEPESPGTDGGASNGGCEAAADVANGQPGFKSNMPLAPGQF

[2] = molecular target: T2, α1A-AR (Homo sapiens, UniProt P35348); test: as above; format: cell-based
T2 construct: gene ADRA1A; human receptor from pcDNA3.1+ plasmid, stably expressed in rat PC12 cells
T2 sequence (P35348 1-466): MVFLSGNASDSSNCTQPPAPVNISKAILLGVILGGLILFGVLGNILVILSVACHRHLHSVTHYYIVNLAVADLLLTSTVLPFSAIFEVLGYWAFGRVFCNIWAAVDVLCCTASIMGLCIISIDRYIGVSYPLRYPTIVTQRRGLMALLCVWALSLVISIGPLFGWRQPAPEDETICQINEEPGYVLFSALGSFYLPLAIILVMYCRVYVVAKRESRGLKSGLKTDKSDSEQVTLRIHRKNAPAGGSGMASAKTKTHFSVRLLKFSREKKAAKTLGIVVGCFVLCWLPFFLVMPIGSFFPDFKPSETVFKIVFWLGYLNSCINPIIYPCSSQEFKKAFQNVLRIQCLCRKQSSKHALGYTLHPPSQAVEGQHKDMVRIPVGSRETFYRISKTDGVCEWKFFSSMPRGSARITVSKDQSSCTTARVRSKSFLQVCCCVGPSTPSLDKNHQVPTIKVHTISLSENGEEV

| Structure (SMILES) | IC50 [1] [µM] | IC50 ([2]; read-out: α1A (converted)) [µM] | IC50 ([2]; antagonism of noradrenaline at EC90, 37 °C, pH 7) |
| --- | --- | --- | --- |
| CNCCCN1c2ccccc2CCc2ccccc21 [desipramine] | 7.94 |  |  |
| CN(C)CCCN1c2ccccc2CCc2ccccc21 [imipramine] | 8.13 | 0.468 |  |
| CN(C)CCCC1(c2ccc(F)cc2)OCc2cc(C#N)ccc21 (stereo not drawn) [citalopram] | > 100 |  |  |
| CNCCC(Oc1ccc(C(F)(F)F)cc1)c1ccccc1 (stereo not drawn) [fluoxetine] | > 100 |  |  |
| COc1cccc(OC)c1OCCNCC1COc2ccccc2O1 (stereo not drawn) [WB4101] |  |  | 1 × 10^−8.6 M |
